The values below come from patent publication US7304074B2, “Substituted 1,5-naphthyridine azolinones” (Hoffmann-La Roche Inc., priority 2005, dated 2007).

Each structure is given as a SMILES string. Where only a bound is given, the exact number is not on record here.

What all share (assay type): biochemical
One experiment addresses CDK1/Cyclin B (Homo sapiens, UniProt P06493). Nature of the experiment: CDK1/Cyclin B kinase assay (FlashPlate or HTRF). As to conditions: recombinant human CDK1/Cyclin B, Rb substrate; Ki=IC50/(1+[S]/Km). As for the experimental part:
To determine inhibition of CDK1 activity, either FlashPlate™ (NEN™-Life Science Products) assay or HTRF assay was performed. Both types of kinase assays were carried out using recombinant human CDK1/Cyclin B complex. GST-cyclinB (GST-cycB) and CDK1 cDNA clones in baculovirus vectors were provided by Dr. W. Harper at the Baylor College of Medicine, Houston, Tex. Proteins were co-expressed in High Five™ insect cells and the complex was purified on glutathione Sepharose resin (Pharmacia, Piscataway, N.J.) as previously described (Harper, J. W. et al. Cell 1993, 75, 805-816). A 6×-Histidine tagged truncated form of retinoblastoma (Rb) protein (amino acid 386-928) was used as the substrate for the CDK1/Cyclin B assay (the expression plasmid was provided by Dr. Veronica Sullivan, Department of Molecular Virology, Roche Research Centre, Welwyn Garden City, United Kingdom). The Rb protein is a natural substrate for phosphorylation by CDK1 (see Herwig and Strauss Eur. J. Biochem. Vol. 246 (1997) pp. 581-601 and the references cited therein). The expression of the 62 Kd protein was under the control of an IPTG inducible promoter in an M15 E. coli strain. Cells were lysed by sonication and purification was carried out by binding lysates at pH 8.0 to a Ni-chelated agarose column pretreated with 1 mM imidazole. The resin was then washed several times with incrementally decreasing pH buffers to pH 6.0, and eluted with 500 mM imidazole. Eluted protein was dialysed against 20 mM HEPES pH 7.5, 30% glycerol, 200 mM NaCl, and 1 mM DTT. Purified Rb fusion protein stocks were quantitated for protein concentration, aliquoted, and stored at −70° C.
For the FlashPlate kinase assay, 96-well FlashPlates were coated with Rb protein at 10 μg/ml, using 100 μl per well. Plates were incubated at 4° C. overnight or at room temperature for 3 hours on a shaker. To control for nonspecific phosphorylation, one row of wells was coated with 100 μl/well coating buffer (20 mM HEPES, 0.2 M NaCl). Plates were then washed twice with wash buffer (0.01% Tween 20 in phosphate-buffered saline). Compounds to be tested (“test compounds”) were added to the wells at 5×final concentration. Reactions were initiated by immediate addition of 40 μl reaction mix (25 mM HEPES, 20 mM MgCl2, 0.002% Tween 20, 2 mM DTT, 1 μM ATP, 3.3 nM 33P-ATP) and a sufficient amount of enzyme to give counts that were at least 10-fold above background. Plates were incubated at room temperature on a shaker for 30 minutes. Plates were washed four times with the wash buffer, sealed, and counted on the TopCount scintillation counter (Packard Instrument Co., Downers Grove, Ill.). The percent inhibition of Rb phosphorylation, which is a measure of the inhibition of CDK1 activity, was determined according to the following formula:
[formula] where “test compound” refers to the average counts per minute of the test duplicates, “nonspecific” refers to the average counts per minute when no CDK1/Cyclin B, etc., was added, and “total” refers to the average counts per minute when no compound was added. […] The value of the inhibitor constant Ki is calculated by the following: Ki=IC50/(1+[S]/Km), where [S] is the ATP concentration and Km is Michaelis constant.
The Homogeneous Time Resolved Fluorescence (HTRF) kinase assay was carried out in 96-well polypropylene plates (BD Biosciences, Bedford, Mass.). […]
Background: In TR-FRET formats the signal depends on donor and acceptor labels being close together.

The target in a further experiment is CDK2 (Homo sapiens, UniProt P24941). Nature of the experiment: CDK2 kinase inhibition (selectivity).
In another experiment the target is CDK4 (Homo sapiens, UniProt P11802). Nature of the experiment: CDK4 kinase inhibition (selectivity).
Sequence of CDK4 (P11802 whole entry, species assumed): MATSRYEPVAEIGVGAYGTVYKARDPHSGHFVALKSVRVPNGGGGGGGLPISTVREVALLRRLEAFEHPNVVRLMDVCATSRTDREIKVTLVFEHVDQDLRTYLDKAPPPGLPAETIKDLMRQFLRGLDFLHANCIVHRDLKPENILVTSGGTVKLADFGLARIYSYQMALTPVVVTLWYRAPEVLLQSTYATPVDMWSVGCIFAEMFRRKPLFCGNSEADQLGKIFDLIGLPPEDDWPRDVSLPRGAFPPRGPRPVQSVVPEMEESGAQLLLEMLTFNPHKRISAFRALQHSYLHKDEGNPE
Sequence of CDK4 (P24385 whole entry partner, species assumed): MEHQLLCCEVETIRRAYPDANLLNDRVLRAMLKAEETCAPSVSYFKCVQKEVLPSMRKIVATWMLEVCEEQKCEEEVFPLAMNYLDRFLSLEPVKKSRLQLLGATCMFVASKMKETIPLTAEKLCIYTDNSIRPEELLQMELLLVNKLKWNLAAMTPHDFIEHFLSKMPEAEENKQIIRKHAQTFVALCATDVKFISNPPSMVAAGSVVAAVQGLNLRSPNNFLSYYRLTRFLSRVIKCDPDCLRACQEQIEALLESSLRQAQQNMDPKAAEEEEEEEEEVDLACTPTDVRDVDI

Sequence of CDK1/Cyclin B (P06493 whole entry, the tested form may be a part): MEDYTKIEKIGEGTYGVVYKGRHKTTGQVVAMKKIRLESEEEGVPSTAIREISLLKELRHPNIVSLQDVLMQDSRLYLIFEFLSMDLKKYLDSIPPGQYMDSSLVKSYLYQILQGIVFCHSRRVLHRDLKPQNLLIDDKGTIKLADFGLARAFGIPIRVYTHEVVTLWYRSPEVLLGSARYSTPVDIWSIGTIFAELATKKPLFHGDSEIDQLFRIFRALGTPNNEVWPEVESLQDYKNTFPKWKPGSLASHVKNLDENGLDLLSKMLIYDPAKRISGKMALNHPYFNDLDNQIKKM
Sequence of CDK1/Cyclin B (P14635 whole entry partner, the tested form may be a part): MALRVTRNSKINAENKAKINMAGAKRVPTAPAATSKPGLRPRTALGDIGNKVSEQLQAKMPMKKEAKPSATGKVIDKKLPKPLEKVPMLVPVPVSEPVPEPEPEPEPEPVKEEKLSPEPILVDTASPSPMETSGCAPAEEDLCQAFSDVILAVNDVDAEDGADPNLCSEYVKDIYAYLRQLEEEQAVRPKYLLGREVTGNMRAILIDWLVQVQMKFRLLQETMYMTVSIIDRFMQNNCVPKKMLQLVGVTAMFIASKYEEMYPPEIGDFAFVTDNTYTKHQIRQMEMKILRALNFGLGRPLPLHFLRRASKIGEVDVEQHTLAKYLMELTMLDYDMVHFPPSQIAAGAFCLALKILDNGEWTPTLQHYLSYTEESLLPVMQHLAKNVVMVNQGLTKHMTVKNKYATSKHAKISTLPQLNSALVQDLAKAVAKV

In general, Ki refers to a dissociation constant, usually derived from enzyme kinetics or from competition with a known ligand. As to `CC(C)Oc1c(C#N)cnc2ccc(/C=C3\SC(N)=NC3=O)nc12` [Example 1, 6-(2-Amino-4-oxo-4H-thiazol-5-ylidenemethyl)-4-isopropoxy-[1,5]naphthyridine-3-carbonitrile], the Ki at CDK1/Cyclin B was 8 nM; at CDK2 it was 18 nM; on CDK4, above 10000 nM.

For the compound `CC(C)Oc1c(C#N)cnc2ccc(/C=C3\SC(NCc4ccccc4Cl)=NC3=O)nc12` [Example 2], the Ki was 150 nM at CDK1/Cyclin B, 610 nM at CDK2 and above 10000 nM at CDK4.

As to `CC(C)Oc1c(C#N)cnc2ccc(/C=C3\SC(N[C@@H]4C[C@H]4c4ccccc4)=NC3=O)nc12` [Example 3, 4-Isopropoxy-6-[4-oxo-2-(2-phenyl-cyclopropylamino)-4H-thiazol-5-ylidenemethyl]-[1,5]naphthyridine-3-carbonitrile], the Ki is 78 nM at CDK1/Cyclin B, 351 nM on CDK2 and above 10000 nM at CDK4.

As to `CC(C)Oc1c(C#N)cnc2ccc(/C=C3\SC(NCc4cccs4)=NC3=O)nc12` [Example 4, 4-Isopropoxy-6-{4-oxo-2-[(thiophen-2-ylmethyl)-amino]-4H-thiazol-5-ylidenemethyl}-[1,5]naphthyridine-3-carbonitrile], the Ki was 47 nM on CDK1/Cyclin B, 554 nM at CDK2 and above 10000 nM at CDK4.

Turning to `Cc1cccc(Cl)c1CNC1=NC(=O)/C(=C/c2ccc3ncc(C#N)cc3n2)S1` [Example 17, 6-[2-(2-Chloro-6-methyl-benzylamino)-4-oxo-4H-thiazol-5-ylidenemethyl]-[1,5]naphthyridine-3-carbonitrile], the Ki on CDK1/Cyclin B is 539 nM; at CDK2 it was above 10000 nM.
